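Following 48 hours of exposure in 96-well plates, responses at five concentrations were used to interpolate endpoints linearly. The concentration for 50% growth inhibition is given as GI50.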 Calls of active or inactive are those of the source. Rule as the data show it: active = GI50 up to about 1.1 µM and inactive = higher.
Key:
Assay in all cases: NCI-60 cell line screen, 48 h
BT-549 = tested on: BT-549
DU-145 = tested on: DU-145
Hs-578T = tested on: Hs-578T
M14 = tested on: M14
MCF7 = tested on: MCF7
MDA-MB-231 = tested on: MDA-MB-231
MDA-MB-435 = tested on: MDA-MB-435
MDA-N = tested on: MDA-N
NCI-H226 = tested on: NCI-H226
NCI/ADR-RES = tested on: NCI/ADR-RES
PC-3 = tested on: PC-3
T47D = tested on: T47D
786-0 = tested on: 786-0
A498 = tested on: A498
A549 = tested on: A549
ACHN = tested on: ACHN
CAKI-1 = tested on: CAKI-1
CCRF-CEM = tested on: CCRF-CEM
COLO 205 = tested on: COLO 205
EKVX = tested on: EKVX
HCC 2998 = tested on: HCC 2998
HCT-116 = tested on: HCT-116
HCT-15 = tested on: HCT-15
HL-60 = tested on: HL-60
HOP-62 = tested on: HOP-62
HOP-92 = tested on: HOP-92
HT-29 = tested on: HT-29
IGROV-1 = tested on: IGROV-1
K562 = tested on: K562
KM12 = tested on: KM12
LOX IMVI = tested on: LOX IMVI
MOLT-4 = tested on: MOLT-4
Malme-3M = tested on: Malme-3M
NCI-H23 = tested on: NCI-H23
NCI-H460 = tested on: NCI-H460
NCI-H522 = tested on: NCI-H522
OVCAR-3 = tested on: OVCAR-3
OVCAR-4 = tested on: OVCAR-4
OVCAR-5 = tested on: OVCAR-5
OVCAR-8 = tested on: OVCAR-8
RPMI-8226 = tested on: RPMI-8226
RXF 393 = tested on: RXF 393
SF-268 = tested on: SF-268
SF-295 = tested on: SF-295
SK-MEL-28 = tested on: SK-MEL-28
SK-MEL-2 = tested on: SK-MEL-2
SK-MEL-5 = tested on: SK-MEL-5
SK-OV-3 = tested on: SK-OV-3
SN12C = tested on: SN12C
SNB-19 = tested on: SNB-19
SNB-75 = tested on: SNB-75
SW-620 = tested on: SW-620
TK-10 = tested on: TK-10
U-251 = tested on: U-251
UACC-257 = tested on: UACC-257
UACC-62 = tested on: UACC-62
UO-31 = tested on: UO-31
SF-539 = tested on: SF-539

Structure (SMILES): CNc1nc(N(C)C)nc(N(C)C)n1
- GI50 (BT-549): 1320 µM (inactive)
- GI50 (DU-145): 2790 µM (inactive)
- GI50 (Hs-578T): 2100 µM (inactive)
- GI50 (M14): 1210 µM (inactive)
- GI50 (MCF7): 771 µM (inactive)
- GI50 (MDA-MB-231): 955 µM (inactive)
- GI50 (MDA-MB-435): 1110 µM (inactive)
- GI50 (MDA-N): 855 µM (inactive)
- GI50 (NCI-H226): 1120 µM (inactive)
- GI50 (NCI/ADR-RES): 1140 µM (inactive)
- GI50 (PC-3): 1580 µM (inactive)
- GI50 (T47D): 578 µM (inactive)

Structure (SMILES): COc1ccc(OC)c2sc(N3C(=O)/C(=C/c4cccc(Oc5ccccc5)c4)N=C3c3ccccc3)nc12
- GI50 (786-0): > 100 µM (inactive)
- GI50 (A498): > 100 µM (inactive)
- GI50 (A549): > 100 µM (inactive)
- GI50 (ACHN): > 100 µM (inactive)
- GI50 (BT-549): > 100 µM (inactive)
- GI50 (CAKI-1): > 100 µM (inactive)
- GI50 (CCRF-CEM): 29.9 µM (inactive)
- GI50 (COLO 205): 51.8 µM (inactive)
- GI50 (DU-145): > 100 µM (inactive)
- GI50 (EKVX): > 100 µM (inactive)
- GI50 (HCC 2998): > 100 µM (inactive)
- GI50 (HCT-116): 85.1 µM (inactive)
- GI50 (HCT-15): 87.9 µM
- GI50 (HL-60): 38 µM (inactive)
- GI50 (HOP-62): > 100 µM (inactive)
- GI50 (HOP-92): > 100 µM (inactive)
- GI50 (HT-29): > 100 µM (inactive)
- GI50 (Hs-578T): > 100 µM (inactive)
- GI50 (IGROV-1): > 100 µM (inactive)
- GI50 (K562): 32.1 µM (inactive)
- GI50 (KM12): 70 µM (inactive)
- GI50 (LOX IMVI): 65.3 µM (inactive)
- GI50 (M14): > 100 µM (inactive)
- GI50 (MCF7): 35.2 µM (inactive)
- GI50 (MDA-MB-231): > 100 µM (inactive)
- GI50 (MDA-MB-435): 29.3 µM (inactive)
- GI50 (MDA-N): 38 µM (inactive)
- GI50 (MOLT-4): 31.9 µM (inactive)
- GI50 (Malme-3M): > 100 µM (inactive)
- GI50 (NCI-H23): > 100 µM (inactive)
- GI50 (NCI-H460): > 100 µM (inactive)
- GI50 (NCI-H522): 53.7 µM (inactive)
- GI50 (NCI/ADR-RES): > 100 µM (inactive)
- GI50 (OVCAR-3): > 100 µM (inactive)
- GI50 (OVCAR-4): > 100 µM (inactive)
- GI50 (OVCAR-5): > 100 µM (inactive)
- GI50 (OVCAR-8): 76 µM (inactive)
- GI50 (PC-3): > 100 µM (inactive)
- GI50 (RPMI-8226): 38.8 µM (inactive)
- GI50 (RXF 393): > 100 µM (inactive)
- GI50 (SF-268): > 100 µM (inactive)
- GI50 (SF-295): > 100 µM (inactive)
- GI50 (SK-MEL-28): > 100 µM (inactive)
- GI50 (SK-MEL-2): > 100 µM (inactive)
- GI50 (SK-MEL-5): 47.5 µM (inactive)
- GI50 (SK-OV-3): > 100 µM (inactive)
- GI50 (SN12C): > 100 µM (inactive)
- GI50 (SNB-19): > 100 µM (inactive)
- GI50 (SNB-75): > 100 µM (inactive)
- GI50 (SW-620): 51.1 µM (inactive)
- GI50 (T47D): 47 µM (inactive)
- GI50 (TK-10): > 100 µM (inactive)
- GI50 (U-251): 92 µM (inactive)
- GI50 (UACC-257): 71.3 µM (inactive)
- GI50 (UACC-62): > 100 µM (inactive)
- GI50 (UO-31): > 100 µM (inactive)

Structure (SMILES): COC(=O)CCCc1c(-c2[nH]c3ccccc3c2CCCC(=O)OC)[nH]c2ccccc12
- GI50 (786-0): > 100 µM (inactive)
- GI50 (A498): > 100 µM (inactive)
- GI50 (A549): > 100 µM (inactive)
- GI50 (ACHN): > 100 µM (inactive)
- GI50 (BT-549): > 100 µM (inactive)
- GI50 (CAKI-1): > 100 µM (inactive)
- GI50 (CCRF-CEM): > 100 µM (inactive)
- GI50 (COLO 205): > 100 µM (inactive)
- GI50 (DU-145): > 100 µM (inactive)
- GI50 (EKVX): > 100 µM (inactive)
- GI50 (HCT-116): > 100 µM (inactive)
- GI50 (HCT-15): > 100 µM
- GI50 (HL-60): > 100 µM (inactive)
- GI50 (HOP-62): > 100 µM (inactive)
- GI50 (HOP-92): > 100 µM (inactive)
- GI50 (HT-29): > 100 µM (inactive)
- GI50 (Hs-578T): > 100 µM (inactive)
- GI50 (IGROV-1): > 100 µM (inactive)
- GI50 (K562): > 100 µM (inactive)
- GI50 (KM12): > 100 µM (inactive)
- GI50 (LOX IMVI): > 100 µM (inactive)
- GI50 (M14): > 100 µM (inactive)
- GI50 (MDA-MB-231): > 100 µM (inactive)
- GI50 (MDA-MB-435): > 100 µM (inactive)
- GI50 (MDA-N): > 100 µM (inactive)
- GI50 (MOLT-4): > 100 µM (inactive)
- GI50 (Malme-3M): 39.3 µM (inactive)
- GI50 (NCI-H226): > 100 µM (inactive)
- GI50 (NCI-H23): > 100 µM (inactive)
- GI50 (NCI-H460): > 100 µM (inactive)
- GI50 (NCI-H522): > 100 µM (inactive)
- GI50 (NCI/ADR-RES): > 100 µM (inactive)
- GI50 (OVCAR-3): > 100 µM (inactive)
- GI50 (OVCAR-5): > 100 µM (inactive)
- GI50 (OVCAR-8): > 100 µM (inactive)
- GI50 (PC-3): > 100 µM (inactive)
- GI50 (RPMI-8226): > 100 µM (inactive)
- GI50 (RXF 393): > 100 µM (inactive)
- GI50 (SF-268): > 100 µM (inactive)
- GI50 (SF-295): > 100 µM (inactive)
- GI50 (SF-539): > 100 µM (inactive)
- GI50 (SK-MEL-28): > 100 µM (inactive)
- GI50 (SK-MEL-2): > 100 µM (inactive)
- GI50 (SK-MEL-5): > 100 µM (inactive)
- GI50 (SK-OV-3): > 100 µM (inactive)
- GI50 (SN12C): > 100 µM (inactive)
- GI50 (SNB-19): > 100 µM (inactive)
- GI50 (SNB-75): 13.6 µM (inactive)
- GI50 (SW-620): > 100 µM (inactive)
- GI50 (T47D): > 100 µM (inactive)
- GI50 (TK-10): > 100 µM (inactive)
- GI50 (U-251): > 100 µM (inactive)
- GI50 (UACC-257): > 100 µM (inactive)
- GI50 (UACC-62): > 100 µM (inactive)
- GI50 (UO-31): > 100 µM (inactive)
